Test results reported in patent US12378250B2, “Tricyclic compound as IRAK4 inhibitor” (KOREA RESEARCH INSTITUTE OF CHEMICAL TECHNOLOGY, priority 2018, dated 2025).

Assays:
[1] = tested on: IFN-α secretion, peripheral blood mononuclear cells (PBMCs); assay: Suppression of IFN-α secretion in ODN2216-treated PBMCs (ELISA); type: cell-based; conditions: PBMC, 500 nM ODN2216, 72 hours, read-out: IFN-α, % inhibition degree
Description: (§1) Peripheral blood mononuclear cells (PBMCs) isolated from whole blood were distributed in a 96-well plate. TNF-α was aliquoted at a density of 1×10^5 cells/well, IFN-α was aliquoted at a density of 2×10^5 cells/well, and TNF-α and IFN-α were treated with a compound diluted to 4-fold of a final concentration and totally cultured for 30 minutes. TNF-α was treated with 100 ng/ml lipopolysaccharide (LPS), IFN-α was treated with 500 nM ODN2216 (CpGTLR9 stimulator), and TNF-α and IFN-α were further cultured for 24 hours and 72 hours, respectively. An enzyme-linked immunosorbent assay (ELISA) was performed on TNF-α and IFN-α using an ELISA kit manufactured by BD Biosciences and an ELISA kit manufactured by PBL Assay Science, Inc., respectively. A cell supernatant and a standard drug were put into the ELISA plates and reacted for 2 hours. The plates were washed and a measurement antibody and streptavidin-HRP were sequentially added thereto. After the plates were washed, a TMB substrate was added thereto and reacted in a dark place. The reaction was stopped by adding a stop solution thereto, and the absorbance at 450 nm and 570 nm was measured using an absorber (OPTIMax tunable microplate reader, molecular devices). The experimental results are shown in [Table 2].

[2] = tested on: ISG promoter, THP1-Lucia™ ISG cell line; assay: ISG promoter inhibition, THP1-Lucia ISG cell line; type: cell-based; conditions: 1 μg/ml Poly(dA:dT)/LyoVec, 24 hours, read-out: ISG, % inhibition degree
Description: (§2) A THP1-Lucia™ NF-κB cell line (Invivogen) was used in an NF-κB inhibition experiment, and a THP1-Lucia™ ISG cell line was used in an ISG inhibition experiment. In the NF-κB inhibition experiment, cells were planted at a density of 1×10^4 cells/well in a 96-well plate, and in the ISG inhibition experiment, cells were planted at a density of 2×10^4 cells/well in a 96-well plate. The cells were treated with a compound diluted to 4-fold of a final concentration, and totally cultured for 30 minutes. NF-κB was treated with 100 ng/ml lipopolysaccharide (LPS), ISG was treated with a stimulator of 1 μg/ml Poly(dA:dT)/LyoVec, and NF-κB and ISG were cultured for 24 hours. 10 μl of a cell supernatant was taken and transferred to a 96-well plate. 50 μl of a Quanti-luc solution was aliquoted using an automatic aliquoter of a measurer (Envision Multilabel Plate Reader, Perkin Elmer, Inc.), and light emission signals were measured.

[3] = tested on: NF-κB promoter, THP1-Lucia™ NF-κB cell line; assay: NF-κB promoter inhibition, THP1-Lucia NF-κB cell line; type: cell-based; conditions: 100 ng/ml LPS, 24 hours, read-out: NF-κB, % inhibition degree
Description: as §2

[4] = tested on: TNF-α secretion, peripheral blood mononuclear cells (PBMCs); assay: Suppression of TNF-α secretion in LPS-treated PBMCs (ELISA); type: cell-based; conditions: PBMC, 100 ng/ml LPS, 24 hours, read-out: TNF-α, % inhibition degree
Description: as §1

IRAK4 enzyme = molecular target: T1, IRAK4 enzyme (Homo sapiens, UniProt Q9NWZ3); assay: IRAK4 enzyme inhibition degree (bead-based kinase assay, peptide substrate BMKC-2, 100 μM ATP); type: biochemical; conditions: for inhibition at 1 µM: compound 1 μM
T1 sequence (Q9NWZ3 1-460): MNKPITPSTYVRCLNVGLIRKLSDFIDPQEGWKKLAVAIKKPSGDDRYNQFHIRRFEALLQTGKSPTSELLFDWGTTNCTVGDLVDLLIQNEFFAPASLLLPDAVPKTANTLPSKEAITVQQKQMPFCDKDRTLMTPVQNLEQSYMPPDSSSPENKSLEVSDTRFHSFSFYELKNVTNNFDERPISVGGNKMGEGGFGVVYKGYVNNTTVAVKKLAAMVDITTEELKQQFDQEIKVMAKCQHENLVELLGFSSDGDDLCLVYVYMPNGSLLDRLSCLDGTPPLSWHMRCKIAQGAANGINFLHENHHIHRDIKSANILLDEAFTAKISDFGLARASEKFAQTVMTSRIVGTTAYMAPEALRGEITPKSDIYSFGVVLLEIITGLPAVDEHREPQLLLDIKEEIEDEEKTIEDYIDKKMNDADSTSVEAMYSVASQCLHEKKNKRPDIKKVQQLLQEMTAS
Description: 2.5 μl of a compound diluted to 4-fold of a final concentration was put into a 384-well white plate (low volume). 2.5 μl of 0.4 ng/μl IRAK4 enzyme was added thereto, and the resulting mixture was totally reacted for 10 minutes. 5 μl of a mixed liquid of a 6 μM peptide substrate (BMKC-2) and 100 μM ATP was added thereto, the resulting mixture was reacted at room temperature for 60 minutes, then 2.5 μl of 10 mM EDTA was added thereto, and the resulting mixture was reacted again for 10 minutes. 40 nM anti-phospho Thr antibody was aliquoted to 2.5 μl each, 5 μl of a mixed solution of a 160 μl/ml acceptor bead and a donor bead was added thereto, and then the resulting mixture was reacted at room temperature for 60 minutes. Fluorescence signals were measured using a bead experimental apparatus (Fusion alpha-FP Microplate Reader, Perkin Elmer Inc.).
From the detected signal, an activity inhibition rate [% inhibition degree=(the average value of a compound−the average value of a negative control)/(the average value of a positive control−the average value of a negative control)×100] was calculated, and is shown in [Table 1]. Further, a % inhibition degree of the compound at each concentration was obtained, and then a 50% inhibition concentration (IC50 value) was analyzed by a non-linear regression analysis.

| IC50 (IRAK4 enzyme) | inhibition at 1 µM (IRAK4 enzyme) | SMILES | inhibition at 0.1 µM [1] | inhibition at 1 µM [1] | inhibition at 0.1 µM [2] | inhibition at 1 µM [2] | inhibition at 0.1 µM [3] | inhibition at 1 µM [3] | inhibition at 0.1 µM [4] | inhibition at 1 µM [4] |
| --- | --- | --- | --- | --- | --- | --- | --- | --- | --- | --- |
| 29 nM | 83% | CCOC(=O)c1ccc2[nH]c3ncnc(N[C@H]4CC[C@H](N5CCOCC5)CC4)c3c2c1 [Compound 5ba, ethyl 4-((trans-4-morpholinocyclohexyl)amino)-9H-pyrimido[4,5-b]indole-6-carboxylate] | 27% | 73.9% | 37% | 78% | 48% | 89% | 31.7% | 41.3% |
| 21 nM | 83% | CCOC(=O)c1ccc2[nH]c3ncnc(N[C@H]4CC[C@H](N(C)C)CC4)c3c2c1 [Compound 5bb, ethyl 4-((trans-4-(dimethylamino)cyclohexyl)amino)-9H-pyrimido[4,5-b]indole-6-carboxylate] | 27.3% | 90% | 43% | 73% | 58% | 92% | 7.3% | 47% |
| 128 nM | 99% | COC(=O)c1ccc2c(c1)[nH]c1ncnc(N[C@H]3CC[C@H](N4CCOCC4)CC3)c12 [Compound 5da, methyl 4-((trans-4-morpholinocyclohexyl)amino)-9H-pyrimido[4,5-b]indole-7-carboxylate] | 10% | 40% | 1% | 20% | 5% | 30% | 10% | 40% |

Second part, the molecule before the results:

| SMILES | IC50 (IRAK4 enzyme) | inhibition at 1 µM (IRAK4 enzyme) | inhibition at 0.1 µM [1] | inhibition at 1 µM [1] | inhibition at 0.1 µM [2] | inhibition at 1 µM [2] | inhibition at 0.1 µM [3] | inhibition at 1 µM [3] | inhibition at 0.1 µM [4] | inhibition at 1 µM [4] |
| --- | --- | --- | --- | --- | --- | --- | --- | --- | --- | --- |
| Cn1cc(-c2ccc3[nH]c4ncnc(N[C@H]5CC[C@H](N6CCOCC6)CC5)c4c3c2)cn1 [Compound 6aaa, 6-(1-methyl-1H-pyrazol-4-yl)-N-(trans-4-morpholinocyclohexyl)-9H-pyrimido[4,5-b]indole-4-amine] | 28 nM | 100% | 20% | 21% | 17% | 55% | 23% | 71% | 10.5% | 42% |
| c1cc(-c2ccc3[nH]c4ncnc(N[C@H]5CC[C@H](N6CCOCC6)CC5)c4c3c2)ccn1 [Compound 6aab, N-(trans-4-morpholinocyclohexyl)-6-(pyridin-4-yl)-9H-pyrimido[4,5-b]indole-4-amine] | 18.4 nM | 100% | 31% | 94% | 11% | 54% | 8% | 61% | 44% | 114% |
| c1ncc(-c2ccc3[nH]c4ncnc(N[C@H]5CC[C@H](N6CCOCC6)CC5)c4c3c2)cn1 [Compound 6aac, N-(trans-4-morpholinocyclohexyl)-6-(pyrimidin-5-yl)-9H-pyrimido[4,5-b]indole-4-amine] | 12.6 nM | 100% | 21% | 84% | 7% | 45% | 17% | 64% | 24% | 86% |
| Oc1cncc(-c2ccc3[nH]c4ncnc(N[C@H]5CC[C@H](N6CCOCC6)CC5)c4c3c2)c1 [Compound 6aae, 5-(4-((trans-4-morpholinocyclohexyl)amino)-9H-pyrimido[4,5-b]indol-6-yl)pyridine-3-ol] | 2 nM | 100% | 48% | 92% | 4% | 29% | < 1% | 40% | 12% | 53% |
| CN(C)CCOc1cncc(-c2ccc3[nH]c4ncnc(N[C@H]5CC[C@H](N6CCOCC6)CC5)c4c3c2)c1 [Compound 6aag, 6-(5-(2-(dimethylamino)ethoxy)pyridin-3-yl)-N-(trans-4-morpholinocyclohexyl)-9H-pyrimido[4,5-b]indole-4-amine] | 31 nM | 82% | 6.4% | 89.5% | 20% | 52% | 12% | 37% | 16.7% | 51.4% |
| COc1ccc(-c2ccc3[nH]c4ncnc(N[C@H]5CC[C@H](N6CCOCC6)CC5)c4c3c2)cn1 [Compound 6aah, 6-(6-methoxypyridin-3-yl)-N-(trans-4-morpholinocyclohexyl)-9H-pyrimido[4,5-b]indole-4-amine] | 40 nM | 100% | 15% | 79% | 10% | 47% | 19% | 63% | 16% | 67% |
| O=[N+]([O-])c1cccc(-c2ccc3[nH]c4ncnc(N[C@H]5CC[C@H](N6CCOCC6)CC5)c4c3c2)c1 [Compound 6aai, N-(trans-4-morpholinocyclohexyl)-6-(3-nitrophenyl)-9H-pyrimido[4,5-b]indole-4-amine] | 67.6 nM | 98% | 32% | 87% | 9% | 41% | 6% | 36% | 13% | 62% |
| COc1cccc(-c2ccc3[nH]c4ncnc(N[C@H]5CC[C@H](N6CCOCC6)CC5)c4c3c2)c1 [Compound 6aaj, 6-(3-methoxyphenyl)-N-(trans-4-morpholinocyclohexyl)-9H-pyrimido[4,5-b]indole-4-amine] | 159 nM | 99% | 6.4% | 56% | 14% | 20% | < 1% | 33% | 3.2% | 30% |
